Reference: PubChem BioAssay AID2060343 (Molecular Pharmacology Branch, DTP, NCI, 2025)

Test system: 138582-337-R-J1-PDC spheroids with HUVEC/MSC, viability
Experiment: Anticancer human tumor 138582-337-R-J1-PDC patient-derived Merkel cell tumor cell line growth inhibition [IpAb]
Details: for IC50: curve of first compound; for viability, T/C: stronger effect = lower value; active = viability on the fitted dose curve at most 10% of control; inactive = the rest
Summary of the method: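 Combinations with ipatasertib or abemaciclib were tested on tumour spheroids holding HUVEC (25%) and MSC (15%) alongside 60% malignant cells. Top concentration was at or near clinical Cmax (10 microM if undefined), descending in half-log steps.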

[1] = second compound 0.1 µM, first compound 0.0316 µM
[2] = second compound 0.1 µM, first compound 0.1 µM
[3] = second compound 0.1 µM, first compound 0.316 µM
[4] = second compound 0.1 µM, first compound 1 µM
[5] = second compound 0.1 µM, first compound 3.16 µM
[6] = second compound 0.1 µM, first compound 10 µM
[7] = second compound 0.316 µM, first compound 0.0316 µM
[8] = second compound 0.316 µM, first compound 0.1 µM
[9] = second compound 0.316 µM, first compound 0.316 µM
[10] = second compound 0.316 µM, first compound 1 µM
[11] = second compound 0.316 µM, first compound 3.16 µM
[12] = second compound 0.316 µM, first compound 10 µM
[13] = second compound 1 µM, first compound 0.0316 µM
[14] = second compound 1 µM, first compound 0.1 µM
[15] = second compound 1 µM, first compound 0.316 µM
[16] = second compound 1 µM, first compound 1 µM
[17] = second compound 1 µM, first compound 3.16 µM
[18] = second compound 1 µM, first compound 10 µM
[19] = second compound 3.16 µM, first compound 0.0316 µM
[20] = second compound 3.16 µM, first compound 0.1 µM
[21] = second compound 3.16 µM, first compound 0.316 µM
[22] = second compound 3.16 µM, first compound 1 µM
[23] = second compound 3.16 µM, first compound 3.16 µM
[24] = second compound 3.16 µM, first compound 10 µM
[25] = second compound 10 µM, first compound 0.0316 µM
[26] = second compound 10 µM, first compound 0.1 µM
[27] = second compound 10 µM, first compound 0.316 µM
[28] = second compound 10 µM, first compound 1 µM
[29] = second compound 10 µM, first compound 3.16 µM
[30] = second compound 10 µM, first compound 10 µM
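Also: spheroids exposed to compounds for seven days.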
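For viability, T/C in this document: 100% = DMSO vehicle control viability.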

Cn1ncc(Cl)c1-c1cc(C(=O)NC(CN)Cc2cccc(F)c2)sc1Cl (stereo not given) + CC(C)NCC(C(=O)N1CCN(c2ncnc3c2C(C)CC3O)CC1)c1ccc(Cl)cc1
3040 nM: IC50 (second compound 0.1 µM)
686 nM: IC50 (second compound 10 µM)
active: viability, T/C [6] 0.26% | viability, T/C [12] 0.25% | viability, T/C [18] 0.23% | viability, T/C [24] 0.23% | viability, T/C [30] 0.3%
3320 nM: IC50 (second compound 1 µM)
3800 nM: IC50 (second compound 0.316 µM)
3410 nM: IC50 (second compound 3.16 µM)
inactive: viability, T/C [1] 89.4% | viability, T/C [2] 83% | viability, T/C [3] 75.9% | viability, T/C [4] 61.4% | viability, T/C [5] 57.4% | viability, T/C [7] 80.7% | viability, T/C [8] 67.3% | viability, T/C [9] 74.2% | viability, T/C [10] 64.8% | viability, T/C [11] 61.5% | viability, T/C [13] 71.7% | viability, T/C [14] 73.1% | viability, T/C [15] 75.7% | viability, T/C [16] 55.7% | viability, T/C [17] 56.8% | viability, T/C [19] 60.5% | viability, T/C [20] 62% | viability, T/C [21] 55.9% | viability, T/C [22] 58% | viability, T/C [23] 53.6% | viability, T/C [25] 53.1% | viability, T/C [26] 45.6% | viability, T/C [27] 51.8% | viability, T/C [28] 50.8% | viability, T/C [29] 44.6%

Cn1nccc1Nc1nccc(-c2ccn(C(CO)c3ccc(Cl)c(F)c3)c(=O)c2)n1 (stereo not given) + CC(C)NCC(C(=O)N1CCN(c2ncnc3c2C(C)CC3O)CC1)c1ccc(Cl)cc1
< 31.6 nM: IC50 (second compound 10 µM)
> 10000 nM: IC50 (second compound 0.1 µM) | IC50 (second compound 0.316 µM)
158 nM: IC50 (second compound 3.16 µM)
active: viability, T/C [24] 4.47% | viability, T/C [29] 6.51% | viability, T/C [30] 1.06%
1700 nM: IC50 (second compound 1 µM)
inactive: viability, T/C [1] 104% | viability, T/C [2] 88.8% | viability, T/C [3] 91.8% | viability, T/C [4] 100% | viability, T/C [5] 108% | viability, T/C [6] 124% | viability, T/C [7] 82.8% | viability, T/C [8] 82.8% | viability, T/C [9] 77% | viability, T/C [10] 73.5% | viability, T/C [11] 75.8% | viability, T/C [12] 70% | viability, T/C [13] 68.2% | viability, T/C [14] 70.5% | viability, T/C [15] 67.6% | viability, T/C [16] 51.4% | viability, T/C [17] 44.8% | viability, T/C [18] 17.1% | viability, T/C [19] 47.4% | viability, T/C [20] 55.1% | viability, T/C [21] 48.8% | viability, T/C [22] 38.8% | viability, T/C [23] 19.9% | viability, T/C [25] 45.9% | viability, T/C [26] 47.5% | viability, T/C [27] 34.2% | viability, T/C [28] 22.8%

Cn1ncnc1[C@H]1c2n[nH]c(=O)c3cc(F)cc(c23)N[C@@H]1c1ccc(F)cc1 + CC(C)NCC(C(=O)N1CCN(c2ncnc3c2C(C)CC3O)CC1)c1ccc(Cl)cc1
< 0.316 nM: IC50 (second compound 10 µM)
inactive: viability, T/C (second compound 0.1 µM, first compound 0.000316 µM) 99.1% | viability, T/C (second compound 0.1 µM, first compound 0.001 µM) 83% | viability, T/C (second compound 0.1 µM, first compound 0.00316 µM) 89.1% | viability, T/C (second compound 0.1 µM, first compound 0.01 µM) 78.3% | viability, T/C [1] 78.6% | viability, T/C [2] 82.9% | viability, T/C (second compound 0.316 µM, first compound 0.000316 µM) 69.7% | viability, T/C (second compound 0.316 µM, first compound 0.001 µM) 81.8% | viability, T/C (second compound 0.316 µM, first compound 0.00316 µM) 64.5% | viability, T/C (second compound 0.316 µM, first compound 0.01 µM) 70.9% | viability, T/C [7] 72% | viability, T/C [8] 74% | viability, T/C (second compound 1 µM, first compound 0.000316 µM) 72.8% | viability, T/C (second compound 1 µM, first compound 0.001 µM) 64.2% | viability, T/C (second compound 1 µM, first compound 0.00316 µM) 68% | viability, T/C (second compound 1 µM, first compound 0.01 µM) 72.7% | viability, T/C [13] 74.2% | viability, T/C [14] 62% | viability, T/C (second compound 3.16 µM, first compound 0.000316 µM) 58.1% | viability, T/C (second compound 3.16 µM, first compound 0.001 µM) 67.6% | viability, T/C (second compound 3.16 µM, first compound 0.00316 µM) 59.2% | viability, T/C (second compound 3.16 µM, first compound 0.01 µM) 55.2% | viability, T/C [19] 51.3% | viability, T/C [20] 54.8% | viability, T/C (second compound 10 µM, first compound 0.000316 µM) 38.2% | viability, T/C (second compound 10 µM, first compound 0.001 µM) 46.7% | viability, T/C (second compound 10 µM, first compound 0.00316 µM) 42.4% | viability, T/C (second compound 10 µM, first compound 0.01 µM) 39.2% | viability, T/C [25] 38.9% | viability, T/C [26] 40.2%
> 100 nM: IC50 (second compound 0.1 µM) | IC50 (second compound 0.316 µM) | IC50 (second compound 1 µM) | IC50 (second compound 3.16 µM)
